The nature of experiment [1]: Induction of H2O2-induced CO release in PBS buffer at pH 7.4 at 100 uM by HPLC analysis. The class given is functional.
Experiment [2] can be described thus: Induction of ONOO-induced CO release in PBS buffer at pH 7.4 at 100 uM by HPLC analysis. The class given is functional.
Experiment [3] relates to Mus musculus. Briefly: Anti-parkinson activity in MPTP-induced male C57BL/6J mouse model assessed as reduction in NCOA4 level in midbrain at 6 mg/kg, iv pretreated with compound for 1 to 11 days followed by MPTP-induction for 1 to 5 days and measured on day 21. The class given is functional, organism-based. The settings on record: time 21.0 day.
Experiment [4] concerns Mus musculus. Briefly: Anti-parkinson activity in MPTP-induced male C57BL/6J mouse model assessed as increase in TH level in substantia nigra pars compacta at 6 mg/kg, iv pretreated with compound for 1 to 11 days followed by MPTP-induction for 1 to 5 days and measured on day 26 by Western blot analysis. In kind it is functional, organism-based. The settings on record: time 26.0 day.

In experiment [5] the test system is Mus musculus. Briefly: Anti-parkinson activity in MPTP-induced male C57BL/6J mouse model assessed as reduction in MDA level in midbrain at 6 mg/kg, iv pretreated with compound for 1 to 11 days followed by MPTP-induction for 1 to 5 days and measured on day 26 by Western blot analysis. In kind it is functional, organism-based. The settings on record: time 26.0 day.

Experiment [6] deals with Mus musculus. Briefly: Anti-parkinson activity in MPTP-induced male C57BL/6J mouse model assessed as improvement in hindlimb clasping reflex at 6 mg/kg, iv pretreated with compound for 1 to 11 days followed by MPTP-induction for 1 to 5 days and measured on day 24 by hindlimb clasping test. The class given is functional, organism-based. The settings on record: time 24.0 day.

The test system of experiment [7] is SH-SY5Y. Nature of the experiment: Inhibition of ferroptosis in MPP+-induced human SH-SY5Y cells assessed as reduction in DMT1 level by Western blot analysis. In kind it is functional, cell-based. (In western blotting, separated proteins are transferred to a membrane and probed.)
Experiment [8] can be described thus: Induction of H2O2-induced CO release in PBS buffer at pH 7.4 assessed as retention time at 100 uM by gas chromatography analysis. In kind it is functional.
The subject of experiment [9] is Mus musculus. Briefly: Anti-parkinson activity in MPTP-induced male C57BL/6J mouse model assessed as increase in distance traveled in open arms at 6 mg/kg, iv pretreated with compound for 1 day followed by MPTP-induction for 2 to 9 days and measured after 10 days by elevated plus maze test. The class given is functional, organism-based. The note with it: time 10.0 day.

Experiment [10] is described as follows: Induction of ONOO-induced CO release in PBS buffer at pH 7.4 at 100 uM by gold-standard CO-myoglobin assay. The class given is functional.
Experiment [11] in a line: Induction of ONOO-induced CO release in PBS buffer at pH 7.4 assessed as retention time at 100 uM by gas chromatography analysis. In kind it is functional.
The test system of experiment [12] is Mus musculus. Nature of the experiment: Anti-parkinson activity in MPTP-induced male C57BL/6J mouse model assessed as decrease in total alpha-synuclein level in midbrain at 6 mg/kg, iv pretreated with compound for 1 to 11 days followed by MPTP-induction for 1 to 5 days and measured on day 26 by Western blot analysis. The settings on record: time 26.0 day. The class given is functional, organism-based.

In experiment [13] the test system is Mus musculus. Briefly: Anti-parkinson activity in MPTP-induced male C57BL/6J mouse model assessed as increase in total number of fecal pellets production at 6 mg/kg, iv pretreated with compound for 1 day followed by MPTP-induction for 2 to 9 days and measured after 10 days by elevated plus maze test. In kind it is functional, organism-based. The note with it: time 10.0 day.

The subject of experiment [14] is SH-SY5Y. Nature of the experiment: Inhibition of ferroptosis in MPP+-induced human SH-SY5Y cells assessed as decrease in intracellular Fe2+ release by measuring fluorescence intensity at 10 uM pretreated with MPP+ for 20 hrs followed by compound treatment for 2 hrs by FerroOrange probe based confocal microscopic analysis. The class given is functional, cell-based.

In experiment [15] the test system is Mus musculus. Briefly: Anti-parkinson activity in MPTP-induced male C57BL/6J mouse model assessed as reduction in free ferrous iron level in midbrain at 6 mg/kg, iv pretreated with compound for 1 to 11 days followed by MPTP-induction for 1 to 5 days and measured on day 21. The class given is functional, organism-based. The note with it: time 21.0 day.
Experiment [16] deals with SH-SY5Y. Briefly: Inhibition of ferroptosis in MPP+-induced human SH-SY5Y cells assessed as induction of CO release by measuring increase in fluorescent intensity at 10 uM pretreated with MPP+ for 20 hrs followed by compound treatment for 30 mins by COP490 probe based confocal microscopic analysis. In kind it is functional, cell-based.
The subject of experiment [17] is Mus musculus. Nature of the experiment: Anti-parkinson activity in MPTP-induced male C57BL/6J mouse model assessed as increase in frequency of open arms entries at 6 mg/kg, iv pretreated with compound for 1 day followed by MPTP-induction for 2 to 9 days and measured after 10 days by elevated plus maze test. In kind it is functional, organism-based. The settings on record: time 10.0 day.

Experiment [18] concerns Mus musculus. Briefly: Anti-parkinson activity in MPTP-induced male C57BL/6J mouse model assessed as decrease in […] expression in midbrain at 6 mg/kg, iv pretreated with compound for 1 to 11 days followed by MPTP-induction for 1 to 5 days and measured on day 26 by Western blot analysis. The class given is functional, organism-based. The settings on record: time 26.0 day.

The nature of experiment [19]: Induction of ONOO-induced CO release in PBS buffer at pH 7.4 at 100 uM in presence of PdCl2 by fluorescence based analysis. The class given is functional.
The subject of experiment [20] is Mus musculus. Nature of the experiment: Anti-parkinson activity in MPTP-induced male C57BL/6J mouse model assessed as increase in GPX4 expression in substantia nigra pars compacta at 6 mg/kg, iv pretreated with compound for 1 to 11 days followed by MPTP-induction for 1 to 5 days and measured on day 26 by immunostaining based analysis. The note with it: time 26.0 day. The class given is functional, organism-based.

The nature of experiment [21]: Induction of ONOO-induced CO release in PBS buffer at pH 7.4 assessed as increase in fluorescence intensity at 100 uM incubated for 30 min by gas detector analysis. The class given is functional.
The test system of experiment [22] is Mus musculus. Nature of the experiment: Anti-parkinson activity in MPTP-induced male C57BL/6J mouse model assessed as increase in latency period at 6 mg/kg, iv pretreated with compound for 1 to 11 days followed by MPTP-induction for 1 to 5 days and measured on day 24 by rotarod test. In kind it is functional, organism-based. The note with it: time 24.0 day.

The subject of experiment [23] is Mus musculus. Nature of the experiment: Anti-parkinson activity in MPTP-induced male C57BL/6J mouse model assessed as increase in mean speed at 6 mg/kg, iv pretreated with compound for 1 day followed by MPTP-induction for 2 to 9 days and measured after 10 days by open field test. The class given is functional, organism-based. The settings on record: time 10.0 day.

The subject of experiment [24] is Mus musculus. Nature of the experiment: Anti-parkinson activity in MPTP-induced male C57BL/6J mouse model assessed as decrease in phosphorylated alpha-synuclein level in midbrain at 6 mg/kg, iv pretreated with compound for 1 to 11 days followed by MPTP-induction for 1 to 5 days and measured on day 26 by Western blot analysis. The class given is functional, organism-based. The settings on record: time 26.0 day.

Experiment [25] deals with Mus musculus. Briefly: Anti-parkinson activity in MPTP-induced male C57BL/6J mouse model assessed as reduction in DMT1 level in midbrain at 6 mg/kg, iv pretreated with compound for 1 to 11 days followed by MPTP-induction for 1 to 5 days and measured on day 21. The class given is functional, organism-based. The note with it: time 21.0 day.
Experiment [26] has as its system Mus musculus. Nature of the experiment: Anti-parkinson activity in MPTP-induced male C57BL/6J mouse model assessed as increase in total distance traveled at 6 mg/kg, iv pretreated with compound for 1 day followed by MPTP-induction for 2 to 9 days and measured after 10 days by open field test. The class given is functional, organism-based. The note with it: time 10.0 day.

The subject of experiment [27] is Mus musculus. Nature of the experiment: Anti-parkinson activity in MPTP-induced male C57BL/6J mouse model assessed as increase in GPX4 expression in midbrain at 6 mg/kg, iv pretreated with compound for 1 to 11 days followed by MPTP-induction for 1 to 5 days and measured on day 26 by Western blot analysis. The class given is functional, organism-based. The note with it: time 26.0 day.

Experiment [28] concerns Mus musculus. Briefly: Anti-parkinson activity in MPTP-induced male C57BL/6J mouse model assessed as increase in TH level in substantia nigra pars compacta at 6 mg/kg, iv pretreated with compound for 1 to 11 days followed by MPTP-induction for 1 to 5 days and measured on day 26 by immunofluorescence analysis. The class given is functional, organism-based. The settings on record: time 26.0 day.

For experiment [29], the system named is SH-SY5Y. Nature of the experiment: Inhibition of ferroptosis in MPP+-induced human SH-SY5Y cells assessed as decrease in intracellular ONOO release by measuring fluorescence intensity at 10 uM pretreated with MPP+ for 20 hrs followed by compound treatment for 2 hrs by HK-green-4I probe based confocal microscopic analysis. The class given is functional, cell-based.

Experiment [30] is described as follows: Induction of H2O2-induced CO release in PBS buffer at pH 7.4 assessed as increase in fluorescence intensity at 100 uM incubated for 30 min by gas detector analysis. The class given is functional.
The subject of experiment [31] is SH-SY5Y. Briefly: Inhibition of ferroptosis in MPP+-induced human SH-SY5Y cells assessed as reduction in 4-HNE level by Western blot analysis. The class given is functional, cell-based.
The subject of experiment [32] is Mus musculus. Nature of the experiment: Anti-parkinson activity in MPTP-induced male C57BL/6J mouse model assessed as decrease in descending time at 6 mg/kg, iv pretreated with compound for 1 to 11 days followed by MPTP-induction for 1 to 5 days and measured on day 24 by pole test. The class given is functional, organism-based. The note with it: time 24.0 day.
Experiment [33] deals with Mus musculus. Briefly: Anti-parkinson activity in MPTP-induced male C57BL/6J mouse model assessed as reduction in 4-HNE level in midbrain at 6 mg/kg, iv pretreated with compound for 1 to 11 days followed by MPTP-induction for 1 to 5 days and measured on day 26 by Western blot analysis. The settings on record: time 26.0 day. In kind it is functional, organism-based.
Experiment [34] concerns Mus musculus. Nature of the experiment: Anti-parkinson activity in MPTP-induced male C57BL/6J mouse model assessed as increase in SLC7A11 expression in midbrain at 6 mg/kg, iv pretreated with compound for 1 to 11 days followed by MPTP-induction for 1 to 5 days and measured on day 26 by Western blot analysis. The class given is functional, organism-based. The settings on record: time 26.0 day.

In experiment [35] the test system is Mus musculus. Nature of the experiment: Anti-parkinson activity in MPTP-induced male C57BL/6J mouse model assessed as reduction in TFRC level in midbrain at 6 mg/kg, iv pretreated with compound for 1 to 11 days followed by MPTP-induction for 1 to 5 days and measured on day 21. In kind it is functional, organism-based. The settings on record: time 21.0 day.
For experiment [36], the system named is Mus musculus. Nature of the experiment: Anti-parkinson activity in MPTP-induced male C57BL/6J mouse model assessed as increase in TH expression in substantia nigra pars compacta at 6 mg/kg, iv pretreated with compound for 1 to 11 days followed by MPTP-induction for 1 to 5 days and measured on day 26 by immunostaining based analysis. The class given is functional, organism-based. The note with it: time 26.0 day.

For experiment [37], the system named is SH-SY5Y. Briefly: Inhibition of ferroptosis in MPP+-induced human SH-SY5Y cells assessed as increase in GPX4 level by Western blot analysis. In kind it is functional, cell-based.

Structures are written as SMILES. The source made the active and inactive calls. The rule behind the calls is not given here.

For the molecule `CC(=O)c1cc(F)ccc1O`, the result in experiment [1] and in experiment [2] was Active.
Turning to `COC(=O)C(=O)OC1(C)C(=O)Oc2ccc(F)cc21` (configuration not stated), the outcome (in the experiment with Mus musculus [3]; in the experiment on Mus musculus [4]; in the experiment with Mus musculus [5]; with Mus musculus [6]; with Mus musculus [9]; in experiment [10]) was Active. Further, the result in the experiment with Mus musculus [12], with Mus musculus [13], with Mus musculus [15], with Mus musculus [17], in the experiment on Mus musculus [18] and in the experiment with Mus musculus [20] was Active. Also, the result (in [21]; in the experiment on Mus musculus [22]; with Mus musculus [23]; with Mus musculus [24]; in the experiment with Mus musculus [25]; in the experiment on Mus musculus [26]) was Active. The result (in the experiment with Mus musculus [27]; in the experiment with Mus musculus [28]; in experiment [30]; with Mus musculus [32]; with Mus musculus [33]; in the experiment on Mus musculus [34]) was Active. Moreover, the result in the experiment on Mus musculus [35] and in the experiment on Mus musculus [36] was Active. Also, the inhibition result with SH-SY5Y [7], with SH-SY5Y [14], in the experiment with SH-SY5Y [16], in the experiment on SH-SY5Y [29], with SH-SY5Y [31] and in the experiment on SH-SY5Y [37] was “Active” throughout. For the same molecule, the Retention time stood at 3.86 min in [8] and 1.96 min in experiment [11]. Besides, in experiment [19], the Activity result is “Weak_effect”.
